Measurements from patent publication US5196445A, “Heteroaryl-3-oxo-propanenitrile derivatives useful in the treatment of rheumatoid arthritis and other autoimmune diseases” (Farmitalia Carlo Erba Srl, priority 1989, dated 1993).
Read-outs that look alike come from different tables or passages of the source.

How the values were obtained:
[1] = system: adjuvant arthritis in rats; assay: Mycobacterium smegmatis induced adjuvant arthritis in rats (contralateral/left hind paw oedema, systemic phase); format: in vivo, male Lewis rats; settings: 10 mg/kg i.p.; for inhibition in vivo at 10 mg/kg: Mycolicibacterium smegmatis, ip, left hind paw oedema; for Oedema volume ± S.E., day 18 / Oedema volume ± S.E., day 21 / Oedema volume ± S.E., day 25: left hind paw, systemic phase
Description: Mycobacterium smegmatis induced adjuvant arthritis in rats Adjuvant arthritis is induced in groups of 10-30 male Lewis rats, weighing 150 g, by injecting 75 μg of M. smegmatis in 50 μl of mineral oil into the plantar surface of the right hind foot pad. The test compounds are administered at 10 mg/kg i.p.), 5 days a week for 4 weeks, starting on the same day of the mycobacterium injection. The volume of the controlateral (systematic phase) hind foot pad is measured pletismographically on days 18, 21 and 25.

[2] = approximate acute toxicity (LD50) in the mouse, per os, single administration of increasing doses; settings: in vivo, po, measured on the seventh day after treatment
Text: In view of their high biological activity and low toxicity the compounds of the invention can be safely used in medicine. For example, the approximate acute toxicity (LD50) in the mouse of the compounds 2-cyano-3-(1,4-dihydro-1-phenyl-[1]-benzopyrano[4,3-c]pyrazol-3-yl)-3-oxo- N-phenyl-propanamide, and 2-cyano-3-(1,4-dihydro-1-phenyl-[1]-benzothiopyrano[4,3-c]pyrazol-3-yl)-3- oxo-N-phenyl-propanamide, determined per os with single administration of increasing doses and measured on the seventh day after the day of treatment, is higher than 800 mg/kg. Analogous toxocity data have been found for the other compounds of the invention.

[3] = 432 h, Table 1, day 18, read-out: % inhibition vs. controls, day 18
[4] = 504 h, Table 1, day 21, read-out: % inhibition vs. controls, day 21
[5] = 600 h, Table 1, day 25, read-out: % inhibition vs. controls, day 25
[6] = 432 h, Table 2, day 18, read-out: % inhibition vs. controls, day 18
[7] = 504 h, Table 2, day 21, read-out: % inhibition vs. controls, day 21
[8] = 600 h, Table 2, day 25, read-out: % inhibition vs. controls, day 25

SMILES | inhibition in vivo at 10 mg/kg [1, 3] [%] | inhibition in vivo at 10 mg/kg [1, 4] [%] | inhibition in vivo at 10 mg/kg [1, 5] [%] | Oedema volume ± S.E., day 18 ([1]; Table 1, day 18) [mm^3] | Oedema volume ± S.E., day 21 ([1]; Table 1, day 21) [mm^3] | Oedema volume ± S.E., day 25 ([1]; Table 1, day 25) [mm^3] | LD50 at 168 h [2] [mg/kg] | inhibition in vivo at 10 mg/kg [1, 6] [%] | inhibition in vivo at 10 mg/kg [1, 7] [%] | inhibition in vivo at 10 mg/kg [1, 8] [%] | Oedema volume ± S.E., day 18 ([1]; Table 2, day 18) [mm^3] | Oedema volume ± S.E., day 21 ([1]; Table 2, day 21) [mm^3] | Oedema volume ± S.E., day 25 ([1]; Table 2, day 25) [mm^3]
N#CC(C(=O)Nc1ccccc1)C(=O)c1nn(-c2ccccc2)c2c1CSc1ccccc1-2 (centres unmarked) [FCE 24578, 2-cyano-3-(1,4-dihydro-1-phenyl-[1]-benzothiopyrano[4,3-c]pyrazol-3-yl)-3-oxo-N-phenyl-propanamide] | 75 | 65 | 68 | 310 ± 180 | 470 ± 215 | 460 ± 241 | > 800 | – | – | – | – | – | –
N#CC(C(=O)Nc1ccccc1)C(=O)c1nn(-c2ccccc2)c2c1COc1ccccc1-2 (centres unmarked) [FCE 25158, 2-cyano-3-(1,4-dihydro-1-phenyl-[1]-benzopyrano[4,3-c]pyrazol-3-yl)-3-oxo-N-phenyl-propanamide] | – | – | – | – | – | – | > 800 | 30 | 38 | 41 | 700 ± 198 | 683 ± 174 | 717 ± 182
N#CC(C(=O)Nc1ccccc1)C(=O)c1nn(-c2ccccc2)c2c1CCc1ccccc1-2 (centres unmarked) [FCE 25161, 2-cyano-3-(4,5-dihydro-1-phenyl-[1]-benz[g]indazol-3-yl)-3-oxo-N-phenyl-propanamide] | 50 | 49 | 49 | 665 ± 91 | 675 ± 96 | 685 ± 93 | – | – | – | – | – | – | –
N#CC(C(=O)Nc1ccccc1)C(=O)c1nn(-c2ccccc2)c2c1Cc1ccccc1-2 (centres unmarked) [FCE 25276, 2-cyano-3-(1,4-dihydro-1-phenyl-indeno[1,2-c]pyrazol-3-yl)-3-oxo-N-phenyl-propanamide] | – | – | – | – | – | – | – | 41 | 47 | 58 | 587 ± 233 | 587 ± 254 | 512 ± 304
N#CC(C(=O)NCc1ccccc1)C(=O)c1nn(-c2ccccc2)c2c1CSc1ccccc1-2 (centres unmarked) [FCE 25324, N-benzyl-2-cyano-3-(1,4-dihydro-1-phenyl-[1]-benzothiopyrano [4,3-c]pyrazol-3-yl)-3-oxo-propanamide] | 51 | 57 | 60 | 565 ± 72 | 575 ± 97 | 545 ± 78 | – | – | – | – | – | – | –
N#CC(C(=O)Nc1ccc(F)cc1)C(=O)c1nn(-c2ccc(F)cc2)c2c1Cc1ccccc1-2 (centres unmarked) [FCE 26317, 2-cyano-N-(4-fluoro-phenyl)-3-[1-(4-fluoro-phenyl)-1,4-dihydro-indeno[1,2-c]pyrazol-3-yl]-3-oxo-propanamide] | – | – | – | – | – | – | – | 37 | 38 | 44 | 629 ± 347 | 686 ± 393 | 683 ± 417
N#CC(C(=O)Nc1ccccc1)C(=O)c1nn(-c2ccccc2)c2c1Cc1c(CN3CCOCC3)cccc1-2 (centres unmarked) [FCE 26626, 2-cyano-3-(1,4-dihydro-5-morpholinomethyl-1-phenyl-indeno[1,2-c]pyrazol-3-yl)-3-oxo-N-phenyl-propanamide] | – | – | – | – | – | – | – | 57 | 47 | 54 | 425 ± 173 | 587 ± 222 | 562 ± 234
CC(C)(C)OC(=O)c1cccc2c1SCc1c(C(=O)C(C#N)C(=O)Nc3ccccc3)nn(-c3ccccc3)c1-2 (centres unmarked) [FCE 26674, 3-(6-tert-butoxycarbonyl-1,4-dihydro-1-phenyl-[1]-benzothiopyrano[4,3-c]pyrazol-3-yl)-2-cyano-3-oxo-N-phenyl-propanamide] | – | – | – | – | – | – | – | 24 | 40 | 34 | 757 ± 209 | 662 ± 182 | 812 ± 226
N#CC(C(=O)Nc1ccccc1)C(=O)c1nn(-c2ccccc2)c2c1Cc1ccc(F)cc1-2 (centres unmarked) [FCE 26676, 2-cyano-3-(7-fluoro-1,4-dihydro-1-phenyl-indeno[1,2-c]pyrazol-3-yl)-3-oxo-N-phenyl-propanamide] | – | – | – | – | – | – | – | 65 | 54 | 50 | 350 ± 127 | 512 ± 203 | 612 ± 225
